# According to ChEMBL document CHEMBL4837182, “Pharmacological Analysis of the Anti-inflammatory and Antiallodynic Effects of Zinagrandinolide E from Zinnia grandiflora in Mice” (J Nat Prod, 2021):
# The source made the active and inactive calls. The calls are words filed in the database; no cut-off is given here.
# Experiments:
# Assay type in all cases: functional, organism-based
# Mus musculus [1] = assay: Antiallodynic activity in it dosed hyperglycemic Swiss Webster mouse model of neuropathic pain assessed as reversal of carrageenan-induced tactile allodynia measured after 6 hrs; conditions: dose 3-30 µg
# Mus musculus [2] = assay: Antiinflammatory activity in Swiss Webster mouse assessed as protection against carrageenan-induced paw edema at 30 ug/paw pretreated with flumazenil for 15 mins followed by compound addition and measured after 6 hrs; conditions: dose 30.0 µg
# Mus musculus [3] = assay: Antiinflammatory activity in local peripheral dosed Swiss Webster mouse assessed as protection against carrageenan-induced paw edema pretreated with compound for 15 mins followed by carrageenan challenge and measured after 6 hrs; conditions: dose 1-30 µg, time 375.0 min
# Mus musculus [4] = assay: Antiallodynic activity in it dosed Swiss Webster mouse assessed as protection against carrageenan-induced tactile allodynia
# Mus musculus [5] = species on record: Mus musculus; assay: Antiallodynic activity in Swiss Webster mouse assessed as protection against carrageenan-induced tactile allodynia at 30 ug/paw local peripheral pretreatment with compound for 15 mins followed by carrageenan challenge and measured after 6 hrs; conditions: dose 30.0 µg, time 375.0 min
# Mus musculus [6] = assay: Antiallodynic activity in Swiss Webster mouse assessed as reversal of carrageenan-induced tactile allodynia at 30 ug/paw local peripheral administration pretreated with carrageenan for 6 days followed by compound addition and measured 6 hrs post compound treatment; conditions: dose 30.0 µg
# Mus musculus [7] = assay: Antiallodynic activity in local peripheral dosed Swiss Webster mouse assessed as protection against carrageenan-induced tactile allodynia pretreated with compound for 15 mins followed by carrageenan challenge and measured after 6 hrs; conditions: dose 1-30 µg, time 375.0 min
# Mus musculus [8] = species on record: Mus musculus; assay: Antiallodynic activity in Swiss Webster mouse assessed as protection against carrageenan-induced tactile allodynia at 30 ug/paw pretreated with flumazenil for 15 mins followed by compound addition and measured after 6 hrs; conditions: dose 30.0 µg
# Mus musculus [9] = assay: Antiinflammatory activity in Swiss Webster mouse assessed as protection against carrageenan-induced paw edema at 30 ug/paw, it; conditions: dose 30.0 µg
# Mus musculus [10] = assay: Antiinflammatory activity in Swiss Webster mouse assessed as protection against carrageenan-induced paw edema at 30 ug/paw local peripheral pretreatment with compound for 15 mins followed by carrageenan challenge and measured after 6 hrs; conditions: dose 30.0 µg, time 375.0 min
# Mus musculus [11] = assay: Antiinflammatory activity in Swiss Webster mouse assessed as protection against carrageenan-induced paw edema at 30 ug/paw pretreated with l-NAME for 15 mins followed by compound addition and measured after 6 hrs; conditions: dose 30.0 µg
# Mus musculus [12] = species on record: Mus musculus; assay: Antiallodynic activity in Swiss Webster mouse assessed as protection against carrageenan-induced tactile allodynia at 30 ug/paw pretreated with ODQ for 15 mins followed by compound addition and measured after 6 hrs; conditions: dose 30.0 µg
# Mus musculus [13] = assay: Antiinflammatory activity in Swiss Webster mouse assessed as protection against carrageenan-induced paw edema at 30 ug/paw pretreated with ODQ for 15 mins followed by compound addition and measured after 6 hrs; conditions: dose 30.0 µg
# Mus musculus [14] = assay: Antiallodynic activity in local peripheral dosed Swiss Webster mouse assessed as protection against carrageenan-induced tactile allodynia measured every 3 days for 15 days; conditions: dose 3-30 µg, time 15.0 day
# Mus musculus [15] = species on record: Mus musculus; assay: Antiallodynic activity in Swiss Webster mouse assessed as protection against carrageenan-induced tactile allodynia at 30 ug/paw pretreated with l-NAME for 15 mins followed by compound addition and measured after 6 hrs; conditions: dose 30.0 µg
# Mus musculus [16] = assay: Antiinflammatory activity in Swiss Webster mouse assessed as protection against carrageenan-induced paw edema at 30 ug/paw pretreated with glibenclamide for 15 mins followed by compound addition and measured after 6 hrs; conditions: dose 30.0 µg
# Mus musculus [17] = species on record: Mus musculus; assay: Antiallodynic activity in hyperglycemic Swiss Webster mouse model of neuropathic pain assessed as reversal of carrageenan-induced tactile allodynia at 30 ug/paw, it and measured after 6 hrs; conditions: dose 30.0 µg
# Mus musculus [18] = assay: Antiinflammatory activity in Swiss Webster mouse assessed as protection against carrageenan-induced paw edema at 30 ug/paw local peripheral administration and measured after 4 to 6 hrs; conditions: dose 30.0 µg, time 4-6 hrs
# Mus musculus [19] = species on record: Mus musculus; assay: Antiallodynic activity in Swiss Webster mouse assessed as protection against carrageenan-induced tactile allodynia at 30 ug/paw pretreated with methiothepin for 15 mins followed by compound addition and measured after 6 hrs; conditions: dose 30.0 µg
# Mus musculus [20] = assay: Antiinflammatory activity in Swiss Webster mouse assessed as reversal of carrageenan-induced paw edema at 30 ug/paw local peripheral administration pretreated with carrageenan for 6 days followed by compound addition and measured 6 hrs post compound treatment; conditions: dose 30.0 µg
# Mus musculus [21] = assay: Antiallodynic activity in local peripheral dosed hyperglycemic Swiss Webster mouse model of neuropathic pain assessed as reversal of carrageenan-induced tactile allodynia measured after 6 hrs; conditions: dose 3-30 µg
# Mus musculus [22] = species on record: Mus musculus; assay: Antiallodynic activity in Swiss Webster mouse assessed as protection against carrageenan-induced tactile allodynia at 30 ug/paw pretreated with glibenclamide for 15 mins followed by compound addition and measured after 6 hrs; conditions: dose 30.0 µg
# Mus musculus [23] = assay: Antiinflammatory activity in Swiss Webster mouse assessed as protection against carrageenan-induced paw edema at 30 ug/paw pretreated with naloxone for 15 mins followed by compound addition and measured after 6 hrs; conditions: dose 30.0 µg
# Mus musculus [24] = assay: Antiallodynic activity in hyperglycemic Swiss Webster mouse model of neuropathic pain assessed as reversal of carrageenan-induced tactile allodynia at 30 ug/paw local peripheral administration and measured after 6 hrs; conditions: dose 30.0 µg
# Mus musculus [25] = assay: Antiinflammatory activity in Swiss Webster mouse assessed as protection against carrageenan-induced paw edema at 30 ug/paw pretreated with methiothepin for 15 mins followed by compound addition and measured after 6 hrs; conditions: dose 30.0 µg
# Mus musculus [26] = species on record: Mus musculus; assay: Antiallodynic activity in Swiss Webster mouse assessed as protection against carrageenan-induced tactile allodynia at 30 ug/paw pretreated with naloxone for 15 mins followed by compound addition and measured after 6 hrs; conditions: dose 30.0 µg
# Mus musculus [27] = assay: Antiinflammatory activity in Swiss Webster mouse assessed as protection against carrageenan-induced paw edema at 3 to 30 ug/paw local peripheral pretreatment with compound for 15 mins before carrageenan challenge and measured every 3 days for 15 days; conditions: dose 3-30 µg, time 15.0 day
compound,measurement,setting,value
C=C[C@@]1(C)[C@H]2OC(=O)C(=C)[C@H]([C@@H]2OC(=O)/C(C)=C\C)[C@H](OC(=O)C(C)C)[C@@H]1C(=C)C(=O)O,Activity,Mus musculus [1],Dose-Dependent Effect
same,Activity,Mus musculus [2],inactive
same,Activity,Mus musculus [3],Dose-Dependent Effect
same,Activity,Mus musculus [4],Dose-Dependent Effect
same,Activity,Mus musculus [5],Active
same,Activity,Mus musculus [6],Active
same,Activity,Mus musculus [7],Dose-Dependent Effect
same,Activity,Mus musculus [8],inactive
same,Activity,Mus musculus [9],inactive
same,Activity,Mus musculus [10],Active
same,Activity,Mus musculus [11],inactive
same,Activity,Mus musculus [12],inactive
same,Activity,Mus musculus [13],inactive
same,Activity,Mus musculus [14],Dose-Dependent Effect
same,Activity,Mus musculus [15],inactive
same,Activity,Mus musculus [16],inactive
same,Activity,Mus musculus [17],Active
same,Activity,Mus musculus [18],Active
same,Activity,Mus musculus [19],inactive
same,Activity,Mus musculus [20],Active
same,Activity,Mus musculus [21],Dose-Dependent Effect
same,Activity,Mus musculus [22],inactive
same,Activity,Mus musculus [23],inactive
same,Activity,Mus musculus [24],Active
same,Activity,Mus musculus [25],inactive
same,Activity,Mus musculus [26],inactive
same,Activity,Mus musculus [27],inactive
O=C(O)Cc1ccccc1Nc1c(Cl)cccc1Cl,Activity,Mus musculus [5],Active
same,Activity,Mus musculus [6],inactive
same,Activity,Mus musculus [10],Active
same,Activity,Mus musculus [18],Active
same,Activity,Mus musculus [20],inactive
CC(C)C[C@H](CN)CC(=O)O,Activity,Mus musculus [17],Active
same,Activity,Mus musculus [24],inactive
